In ChEMBL document CHEMBL1275577, “Study of the in vitro activities of rifaximin and comparator agents against 536 anaerobic intestinal bacteria from the perspective of potential utility in pathology involving bowel flora” (Antimicrob Agents Chemother, 2009):
Values after ≈ are worked out from the molar mass of the structure shown.

Experiments:
Type in all cases: functional
Eggerthella lenta = assay: Antimicrobial activity against Eggerthella lenta by Wadsworth agar dilution method
Bacteroides stercoris = assay: Antimicrobial activity against Bacteroides stercoris by Wadsworth agar dilution method
Tissierella praeacuta = assay: Antimicrobial activity against Clostridium hastiforme by Wadsworth agar dilution method
[1] = test system: Lactobacillus catenaformis; assay: Antimicrobial activity against Lactobacillus catenaformis by Wadsworth agar dilution method; conditions: Eggerthia catenaformis
Atopobium minutum = assay: Antimicrobial activity against Atopobium minutum by Wadsworth agar dilution method
Clostridium cocleatum = assay: Antimicrobial activity against Clostridium cocleatum by Wadsworth agar dilution method; conditions: Thomasclavelia cocleata
Clostridium beijerinckii = assay: Antimicrobial activity against Clostridium beijerinckii by Wadsworth agar dilution method
Clostridium fallax = assay: Antimicrobial activity against Clostridium fallax by Wadsworth agar dilution method
Prevotella bivia = assay: Antimicrobial activity against Prevotella bivia by Wadsworth agar dilution method
Peptoniphilus harei = assay: Antimicrobial activity against Peptoniphilus harei by Wadsworth agar dilution method
Bilophila wadsworthia = assay: Antimicrobial activity against Bilophila wadsworthia by Wadsworth agar dilution method in presence of 1% pyruvic acid
Collinsella aerofaciens = assay: Antimicrobial activity against Colinsella aerofaciens by Wadsworth agar dilution method
Clostridium symbiosum = assay: Antimicrobial activity against Clostridium symbiosum by Wadsworth agar dilution method
Thomasclavelia ramosa = assay: Antimicrobial activity against Clostridium ramosum by Wadsworth agar dilution method
Eubacterium rectale = assay: Antimicrobial activity against Eubacterium rectale by Wadsworth agar dilution method; conditions: Agathobacter rectalis
Lactobacillus sp. = assay: Antimicrobial activity against Lactobacillus sp. by Wadsworth agar dilution method
Clostridium tertium = assay: Antimicrobial activity against Clostridium tertium by Wadsworth agar dilution method
Anaerococcus prevotii = assay: Antimicrobial activity against Anaerococcus prevotii by Wadsworth agar dilution method
Ruminococcus gnavus = assay: Antimicrobial activity against Ruminococcus gnavus by Wadsworth agar dilution method; conditions: Mediterraneibacter gnavus
[2] = test system: Bifidobacterium pseudolongum; assay: Antimicrobial activity against Bifidobacterium pseudolongum by Wadsworth agar dilution method
[3] = test system: Peptoniphilus asaccharolyticus; assay: Antimicrobial activity against Peptoniphilus asaccharolyticus by Wadsworth agar dilution method
Fusobacterium sp. = assay: Antimicrobial activity against Fusobacterium sp. by Wadsworth agar dilution method
Blautia producta = assay: Antimicrobial activity against Ruminococcus productus by Wadsworth agar dilution method
Desulfovibrio piger = assay: Antimicrobial activity against Desulfovibrio piger by Wadsworth agar dilution method
Actinomyces viscosus = assay: Antimicrobial activity against Actinomyces viscosus by Wadsworth agar dilution method
Flavonifractor plautii = assay: Antimicrobial activity against Clostridium orbiscindens by Wadsworth agar dilution method
Porphyromonas = assay: Antimicrobial activity against Porphyromonas sp. by Wadsworth agar dilution method
Clostridioides difficile = assay: Antimicrobial activity against Clostridium difficile by Wadsworth agar dilution method
Porphyromonas uenonis = assay: Antimicrobial activity against Porphyromonas uenonis by Wadsworth agar dilution method
Finegoldia magna = assay: Antimicrobial activity against Finegoldia magna by Wadsworth agar dilution method
Bacteroides caccae = assay: Antimicrobial activity against Bacteroides caccae by Wadsworth agar dilution method
Clostridium subterminale = assay: Antimicrobial activity against Clostridium subterminale by Wadsworth agar dilution method
[4] = test system: Lactiplantibacillus plantarum; assay: Antimicrobial activity against Lactobacillus plantarum by Wadsworth agar dilution method
Eubacterium saburreum = assay: Antimicrobial activity against Eubacterium saburreum by Wadsworth agar dilution method; conditions: Lachnoanaerobaculum saburreum
Bifidobacterium dentium = assay: Antimicrobial activity against Bifidobacterium dentium by Wadsworth agar dilution method
[5] = test system: Clostridium acetobutylicum; assay: Antimicrobial activity against Clostridium acetobutylicum by Wadsworth agar dilution method
Clostridium spiroforme = assay: Antimicrobial activity against Clostridium spiroforme by Wadsworth agar dilution method; conditions: Thomasclavelia spiroformis
[Clostridium] innocuum = Antimicrobial activity against Clostridium innocuum by Wadsworth agar dilution method
Fusobacterium mortiferum = assay: Antimicrobial activity against Clostridium rectum by Wadsworth agar dilution method
Clostridium nexile = assay: Antimicrobial activity against Clostridium nexile by Wadsworth agar dilution method; conditions: Faecalimonas nexilis
[6] = test system: Enterocloster clostridioformis; assay: Antimicrobial activity against Clostridium clostridioforme by Wadsworth agar dilution method
[7] = test system: Fusobacterium necrophorum; assay: Antimicrobial activity against Fusobacterium necrophorum by Wadsworth agar dilution method
Anaerococcus tetradius = assay: Antimicrobial activity against Anaerococcus tetradius by Wadsworth agar dilution method
[8] = test system: Catenibacterium mitsuokai; assay: Antimicrobial activity against Catenibacterium mitsuokai by Wadsworth agar dilution method
[9] = test system: Porphyromonas asaccharolytica; assay: Antimicrobial activity against Porphyromonas asaccharolyticus by Wadsworth agar dilution method
Prevotella disiens = assay: Antimicrobial activity against Prevotella disiens by Wadsworth agar dilution method
Eubacterium callanderi = assay: Antimicrobial activity against Eubacterium callanderi by Wadsworth agar dilution method

SMILES: CO[C@H]1/C=C/O[C@@]2(C)Oc3c(C)c(O)c4c(O)c(c5c(nc6cc(C)ccn65)c4c3C2=O)NC(=O)/C(C)=C\C=C\[C@H](C)[C@H](O)[C@@H](C)[C@@H](O)[C@@H](C)[C@H](OC(C)=O)[C@@H]1C [RIFAXIMIN]
- MIC50 (Eggerthella lenta): 0.5 µg/mL (≈ 0.636 µM)
- MIC90 (Eggerthella lenta): > 1020 µg/mL
- MIC (Bacteroides stercoris): 0.25 µg/mL (≈ 0.318 µM)
- MIC50 (Bacteroides stercoris): 0.25 µg/mL (≈ 0.318 µM)
- MIC90 (Bacteroides stercoris): 0.5 µg/mL (≈ 0.636 µM)
- MIC (Tissierella praeacuta): 0.25 µg/mL (≈ 0.318 µM)
- MIC50 (Tissierella praeacuta): 0.25 µg/mL (≈ 0.318 µM)
- MIC90 (Tissierella praeacuta): > 1020 µg/mL
- MIC50 [1]: 0.5 µg/mL (≈ 0.636 µM)
- MIC90 [1]: > 1020 µg/mL
- MIC50 (Atopobium minutum): 0.5 µg/mL (≈ 0.636 µM)
- MIC90 (Atopobium minutum): > 1020 µg/mL
- MIC (Clostridium cocleatum): 0.25 µg/mL (≈ 0.318 µM)
- MIC50 (Clostridium cocleatum): 0.25 µg/mL (≈ 0.318 µM)
- MIC90 (Clostridium cocleatum): > 1020 µg/mL
- MIC (Clostridium beijerinckii): 0.25 µg/mL (≈ 0.318 µM)
- MIC50 (Clostridium beijerinckii): 0.25 µg/mL (≈ 0.318 µM)
- MIC90 (Clostridium beijerinckii): > 1020 µg/mL
- MIC (Clostridium fallax): 0.25 µg/mL (≈ 0.318 µM)
- MIC50 (Clostridium fallax): 0.25 µg/mL (≈ 0.318 µM)
- MIC90 (Clostridium fallax): > 1020 µg/mL
- MIC (Prevotella bivia): 0.25 µg/mL (≈ 0.318 µM)
- MIC50 (Prevotella bivia): 0.25 µg/mL (≈ 0.318 µM)
- MIC90 (Prevotella bivia): 0.5 µg/mL (≈ 0.636 µM)
- MIC (Peptoniphilus harei): 0.25 µg/mL (≈ 0.318 µM)
- MIC50 (Peptoniphilus harei): 0.25 µg/mL (≈ 0.318 µM)
- MIC90 (Peptoniphilus harei): 4 µg/mL (≈ 5.09 µM)
- MIC (Bilophila wadsworthia): 0.25 µg/mL
- MIC50 (Bilophila wadsworthia): 0.25 µg/mL
- MIC90 (Bilophila wadsworthia): 0.5 µg/mL
- MIC50 (Collinsella aerofaciens): 0.5 µg/mL (≈ 0.636 µM)
- MIC90 (Collinsella aerofaciens): > 1020 µg/mL
- MIC (Clostridium symbiosum): 0.25 µg/mL (≈ 0.318 µM)
- MIC50 (Clostridium symbiosum): 0.25 µg/mL (≈ 0.318 µM)
- MIC90 (Clostridium symbiosum): > 1020 µg/mL
- MIC (Thomasclavelia ramosa): 0.25 µg/mL (≈ 0.318 µM)
- MIC50 (Thomasclavelia ramosa): 0.25 µg/mL (≈ 0.318 µM)
- MIC90 (Thomasclavelia ramosa): > 1020 µg/mL
- MIC50 (Eubacterium rectale): 0.5 µg/mL (≈ 0.636 µM)
- MIC90 (Eubacterium rectale): > 1020 µg/mL
- MIC50 (Lactobacillus sp.): 0.5 µg/mL (≈ 0.636 µM)
- MIC90 (Lactobacillus sp.): > 1020 µg/mL
- MIC (Clostridium tertium): 0.25 µg/mL (≈ 0.318 µM)
- MIC50 (Clostridium tertium): 0.25 µg/mL (≈ 0.318 µM)
- MIC90 (Clostridium tertium): > 1020 µg/mL
- MIC (Anaerococcus prevotii): 0.25 µg/mL (≈ 0.318 µM)
- MIC50 (Anaerococcus prevotii): 0.25 µg/mL (≈ 0.318 µM)
- MIC90 (Anaerococcus prevotii): 4 µg/mL (≈ 5.09 µM)
- MIC (Ruminococcus gnavus): 0.25 µg/mL (≈ 0.318 µM)
- MIC50 (Ruminococcus gnavus): 0.25 µg/mL (≈ 0.318 µM)
- MIC90 (Ruminococcus gnavus): 4 µg/mL (≈ 5.09 µM)
- MIC50 [2]: 0.5 µg/mL (≈ 0.636 µM)
- MIC90 [2]: > 1020 µg/mL
- MIC [3]: 0.25 µg/mL (≈ 0.318 µM)
- MIC50 [3]: 0.25 µg/mL (≈ 0.318 µM)
- MIC90 [3]: 4 µg/mL (≈ 5.09 µM)
- MIC50 (Fusobacterium sp.): 16 µg/mL (≈ 20.4 µM)
- MIC90 (Fusobacterium sp.): > 1020 µg/mL
- MIC (Blautia producta): 0.25 µg/mL (≈ 0.318 µM)
- MIC50 (Blautia producta): 0.25 µg/mL (≈ 0.318 µM)
- MIC90 (Blautia producta): 4 µg/mL (≈ 5.09 µM)
- MIC50 (Desulfovibrio piger): 16 µg/mL (≈ 20.4 µM)
- MIC90 (Desulfovibrio piger): 332 µg/mL (≈ 422 µM)
- MIC50 (Actinomyces viscosus): 0.5 µg/mL (≈ 0.636 µM)
- MIC90 (Actinomyces viscosus): > 1020 µg/mL
- MIC50 (Flavonifractor plautii): > 1020 µg/mL
- MIC90 (Flavonifractor plautii): > 1020 µg/mL
- MIC (Porphyromonas): 0.25 µg/mL (≈ 0.318 µM)
- MIC50 (Porphyromonas): 0.25 µg/mL (≈ 0.318 µM)
- MIC90 (Porphyromonas): 0.5 µg/mL (≈ 0.636 µM)
- MIC50 (Clostridioides difficile): 0.25 µg/mL (≈ 0.318 µM)
- MIC90 (Clostridioides difficile): 0.25 µg/mL (≈ 0.318 µM)
- MIC (Porphyromonas uenonis): 0.25 µg/mL (≈ 0.318 µM)
- MIC50 (Porphyromonas uenonis): 0.25 µg/mL (≈ 0.318 µM)
- MIC90 (Porphyromonas uenonis): 0.5 µg/mL (≈ 0.636 µM)
- MIC (Finegoldia magna): 0.25 µg/mL (≈ 0.318 µM)
- MIC50 (Finegoldia magna): 0.25 µg/mL (≈ 0.318 µM)
- MIC90 (Finegoldia magna): 4 µg/mL (≈ 5.09 µM)
- MIC (Bacteroides caccae): 0.25 µg/mL (≈ 0.318 µM)
- MIC50 (Bacteroides caccae): 0.25 µg/mL (≈ 0.318 µM)
- MIC90 (Bacteroides caccae): > 0.5 µg/mL
- MIC (Clostridium subterminale): 0.25 µg/mL (≈ 0.318 µM)
- MIC50 (Clostridium subterminale): 0.25 µg/mL (≈ 0.318 µM)
- MIC90 (Clostridium subterminale): > 1020 µg/mL
- MIC50 [4]: 0.5 µg/mL (≈ 0.636 µM)
- MIC90 [4]: > 1020 µg/mL
- MIC50 (Eubacterium saburreum): 0.5 µg/mL (≈ 0.636 µM)
- MIC90 (Eubacterium saburreum): > 1020 µg/mL
- MIC50 (Bifidobacterium dentium): 0.5 µg/mL (≈ 0.636 µM)
- MIC90 (Bifidobacterium dentium): > 1020 µg/mL
- MIC [5]: 0.25 µg/mL (≈ 0.318 µM)
- MIC50 [5]: 0.25 µg/mL (≈ 0.318 µM)
- MIC90 [5]: > 1020 µg/mL
- MIC (Clostridium spiroforme): 0.25 µg/mL (≈ 0.318 µM)
- MIC50 (Clostridium spiroforme): 0.25 µg/mL (≈ 0.318 µM)
- MIC90 (Clostridium spiroforme): > 1020 µg/mL
- MIC50 ([Clostridium] innocuum): > 1020 µg/mL
- MIC90 ([Clostridium] innocuum): > 1020 µg/mL
- MIC (Fusobacterium mortiferum): 0.25 µg/mL (≈ 0.318 µM)
- MIC50 (Fusobacterium mortiferum): 0.25 µg/mL (≈ 0.318 µM)
- MIC90 (Fusobacterium mortiferum): > 1020 µg/mL
- MIC (Clostridium nexile): 0.25 µg/mL (≈ 0.318 µM)
- MIC50 (Clostridium nexile): 0.25 µg/mL (≈ 0.318 µM)
- MIC90 (Clostridium nexile): > 1020 µg/mL
- MIC50 [6]: 0.25 µg/mL (≈ 0.318 µM)
- MIC90 [6]: 0.25 µg/mL (≈ 0.318 µM)
- MIC50 [7]: 16 µg/mL (≈ 20.4 µM)
- MIC90 [7]: > 1020 µg/mL
- MIC (Anaerococcus tetradius): 0.25 µg/mL (≈ 0.318 µM)
- MIC50 (Anaerococcus tetradius): 0.25 µg/mL (≈ 0.318 µM)
- MIC90 (Anaerococcus tetradius): 4 µg/mL (≈ 5.09 µM)
- MIC50 [8]: 0.5 µg/mL (≈ 0.636 µM)
- MIC90 [8]: > 1020 µg/mL
- MIC [9]: 0.25 µg/mL (≈ 0.318 µM)
- MIC50 [9]: 0.25 µg/mL (≈ 0.318 µM)
- MIC90 [9]: 0.5 µg/mL (≈ 0.636 µM)
- MIC (Prevotella disiens): 0.25 µg/mL (≈ 0.318 µM)
- MIC50 (Prevotella disiens): 0.25 µg/mL (≈ 0.318 µM)
- MIC90 (Prevotella disiens): 0.5 µg/mL (≈ 0.636 µM)
- MIC50 (Eubacterium callanderi): 0.5 µg/mL (≈ 0.636 µM)
- MIC90 (Eubacterium callanderi): > 1020 µg/mL
